These results are taken from PubChem BioAssay (NCI).

What all share (assay): inhibition of tumour cell growth, NCI panel, 48 h
Assay [1] relates to A498 renal.
The test system of assay [2] is HCC-2998 colon.
The test system of assay [3] is HCT-116 colon.
Assay [4] concerns HL-60(TB) leukemia.
For assay [5], the system named is LOX IMVI melanoma.
Assay [6] concerns MALME-3M melanoma.
For assay [7], the system named is SK-MEL-5 melanoma.
Assay [8] has as its system SN12C renal.
Assay [9] has as its system TK-10 renal.
The subject of assay [10] is U251 CNS.

Each structure is given as a SMILES string. Where “and” joins values, the source holds several entries; their conditions need not be identical. Equal values may be shown once.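 All cell lines were grown in 96-well plates and treated with compound for 48 hours. Here, GI50 denotes the concentration required for 50% inhibition of growth. Definition used: TGI = concentration required for complete inhibition of growth.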

On to `CCCCCCCC/C=C/CCCCCCCC(=O)OC[C@H]1O[C@@H](n2ccc(N)nc2=O)C(F)(F)[C@@H]1O`, for which the GI50 in assay [1] is < 0.0218 µM; in assay [2], 17.5 µM; in [3] it was < 0.018 µM; in [4], 0.0217 µM; in [5], 0.0418 µM; in [6], 0.0463 µM. Besides, the GI50 in [7] is 0.0327 µM; in assay [8], 0.0388 µM; in [9], 2.38 µM; in assay [10], < 0.016 µM. Moreover, the TGI in assay [1] is 6.32 µM; in assay [2], > 100 µM; in assay [3], > 100 µM; in [4] it was 28 µM; in assay [5], > 35.9 µM; in [6] it was > 100 µM. Further, the TGI in assay [7] is > 100 µM; in assay [8], > 47.2 µM; in [9], > 100 µM; in assay [10] it was 25.3 µM.
Regarding `CCOc1ccccc1N=Nc1ccc2oc(=O)c(C(=O)Nc3cccc(C)c3)cc2c1`, the TGI is > 100 µM in assay [1]; 96.9 µM in assay [2]; 51.7 µM in assay [3]; 63.3 µM in assay [4]; 61.6 µM in [5]; > 100 µM in [6]. Also, the TGI in [7] is 32.8 µM; in [8], > 100 µM; in assay [9] it was > 100 µM; in assay [10] it was 81.2 µM.
Regarding `O=C1OC(c2ccccc2)=N/C1=C\c1cccc2ccccc12`, the TGI in assay [1], in assay [2], in assay [3], in assay [4], in assay [5] and in [6] was > 100 µM each time. The TGI in [7], in assay [8], in assay [9] and in assay [10] was > 100 µM in each case.
Turning to `CC(=O)/C(C)=N/NC(=O)c1ccccc1O`, the GI50 in assay [1] was > 10 µM; in assay [2] it was > 100 µM; in assay [3], > 100 µM; in [5] it was > 100 µM; in [6], > 100 µM; in assay [8], > 100 µM. For the same compound, the GI50 in assay [9] and in assay [10] was > 100 µM each time. Further, the TGI in assay [1], in assay [2], in assay [3], in assay [5], in assay [6] and in assay [7] was > 100 µM throughout. Further, the TGI in assay [8], in assay [9] and in [10] was > 100 µM throughout.
With `Oc1cccnc1CN1CCCCC1`, the TGI in assay [1], in assay [2], in [3], in [5], in assay [6] and in [7] was > 100 µM each time. Moreover, the TGI in [8], in assay [9] and in assay [10] was > 100 µM throughout.
In the case of `O=C1C2C3C=C4c5ccccc5N(c5ccccc5)C4(C2C(=O)N1Cc1ccccc1)C1C(=O)N(Cc2ccccc2)C(=O)C31` (stereo unspecified), the TGI in assay [1], in assay [2], in [3], in assay [4], in [5] and in assay [6] was > 100 µM throughout. For the same compound, the TGI in assay [8], in assay [9] and in assay [10] was > 100 µM in each case.
On to `COc1ccc(Nc2c3ccccc3nc3occc23)cc1`, for which the GI50 in assay [1] was 4.5 µM; in assay [2], 0.541 µM; in assay [3], 1.54 µM; in assay [4], 1.47 µM; in assay [5], 6.14 µM; in assay [6], 2.31 µM. For the same compound, the GI50 in assay [7] is 1.32 µM; in [8], 2.45 µM; in [9], 1.61 µM; in assay [10] it was 3.85 µM. Further, the TGI in [1] is 21.8 µM; in assay [2], 12.2 µM; in assay [3], > 32.3 µM; in assay [5] it was 59.9 µM; in assay [6], 34.3 µM; in assay [7], 13.4 µM. The TGI in assay [8] is 23.4 µM; in assay [9], 20.6 µM; in assay [10], > 100 µM.
`COc1cccc2c1C(=O)c1c(O)c3c(c(O)c1C2=O)C[C@@](O)(C(C)=O)C[C@@H]3OC1OC(C)C(O)C(N)C1Br` (stereo partly specified): the GI50 in [1] was 0.0657 µM; in assay [2], 0.168 µM; in [6], 0.0215 µM; in assay [7], 0.0166 µM; in assay [8], 0.018 µM. Further, the TGI in assay [1] was 0.532 µM and 0.228 µM; in assay [2] it was 0.327 µM and 0.489 µM; in assay [3], 0.147 µM and 0.188 µM; in assay [5], 0.153 µM and 0.164 µM; in [6], 0.297 µM and 0.225 µM; in assay [7], 0.223 µM and 0.139 µM. Further, the TGI is 0.307 µM and 1.12 µM in assay [8]; 0.407 µM in assay [9]; 1.07 µM and 2.21 µM in assay [10].
As to `Cc1cc(Cl)ccc1N=C1NC(=O)C(CC(=O)Nc2ccc([N+](=O)[O-])cc2[N+](=O)[O-])S1` (stereo unspecified), the TGI in assay [1] was 51.5 µM; in [2], > 100 µM; in [5], > 100 µM; in assay [6], 73.2 µM; in [7] it was 31.1 µM; in assay [8] it was 90.7 µM. Also, the TGI in assay [9] was > 100 µM; in assay [10] it was 59.9 µM.
As for `COc1cc2c(c(OC)c1OC)-c1ccc(OC)c(=O)cc1[C@@H](NC(=O)c1ccccc1)CC2`, the GI50 is < 0.003 µM in assay [1]; < 0.003 µM in [2]; < 0.003 µM in assay [3]; 0.0105 µM in assay [5]; < 0.003 µM in assay [6]; 0.00569 µM in assay [7]. Moreover, the GI50 was < 0.003 µM in assay [8] and 0.0806 µM in assay [9]. The TGI in [4] was < 0.013 µM; in assay [5], 30 µM and 53.4 µM; in [6], 30 µM and 80.1 µM; in assay [8], 30 µM and > 81.5 µM; in [9] it was 30 µM and > 100 µM; in [10] it was 4.06 µM.
Take `COc1cc(/C=C/c2cc(/C=C/c3ccc(O)c(OC)c3)n(C(=O)Nc3ccc(F)c(Cl)c3)n2)ccc1O`: the GI50 in assay [1] was 0.783 µM; in assay [2] it was 0.639 µM; in assay [4], 0.31 µM; in assay [5], 0.0792 µM; in [6], 1.05 µM; in [7], 0.243 µM. In addition, in assay [9], the GI50 is 0.58 µM. Also, the TGI in assay [1] came out at 2.1 µM; in [2] it was 3.71 µM; in assay [4] it was 0.88 µM; in [5] it was 1.85 µM; in assay [6], 2.48 µM; in assay [7], 1.37 µM. The compound further came in with a TGI in assay [9] of 3.56 µM.
Turning to `O=C1OC(C(O)CO)C(=O)C1=O` (stereo unspecified), the GI50 in assay [1] was 2520 µM; in [2], > 10000 µM; in assay [3], 2460 µM; in assay [5], 1950 µM; in [6], 2070 µM; in assay [7], > 10000 µM. For the same compound, the GI50 is 2530 µM in assay [8], 2080 µM in [9] and 5090 µM in [10]. Also, the TGI in assay [1] was 8510 µM; in [2] it was > 10000 µM; in assay [3], 6520 µM; in assay [5] it was 4990 µM; in [6], 4870 µM; in assay [7], > 10000 µM. Besides, the TGI is 7090 µM in assay [8], 3570 µM in [9] and > 10000 µM in assay [10].
Regarding `CC1(C)SCc2nc3ncccc3n21`, the TGI in [1], in assay [2], in [4], in [5], in assay [6] and in assay [7] was > 100 µM throughout. The TGI in assay [8], in [9] and in assay [10] was > 100 µM each time.
Take `Cc1cn(C2CC(O)C(CO)O2)c(=O)n2nnnc12` (stereo unspecified): the TGI in assay [1], in [2], in assay [3], in [4], in [5] and in [6] was > 100 µM in each case. For the same compound, the TGI in assay [7], in assay [9] and in assay [10] was > 100 µM in each case.
Regarding `COC(=O)/C(=N\Nc1nnc(C)n1N)C(C#N)c1ccc(Cl)cc1` (stereo unspecified), the TGI in assay [1], in assay [2], in [3], in assay [5], in assay [6] and in assay [8] was > 100 µM in each case. In addition, the TGI in assay [9] and in assay [10] was > 100 µM in each case.
As for `CS/C(N)=N\NC(=O)CCC(=O)Nc1ccccc1C(F)(F)F`, the TGI in assay [1], in [2], in assay [3], in assay [5], in assay [6] and in assay [7] was > 100 µM each time. For the same compound, the TGI in assay [8], in [9] and in assay [10] was > 100 µM in each case.
As to `CCCN1CCC(=O)N(CCC(F)(F)C(F)(F)C(F)(F)C(F)(F)C(F)(F)C(F)(F)F)C1=S`, the TGI in assay [1], in [2], in assay [3], in assay [4], in assay [6] and in assay [7] was > 100 µM throughout. For the same compound, the TGI in assay [8], in assay [9] and in assay [10] was > 100 µM in each case.
